Data: ChEMBL document CHEMBL4507289, “Data for DCP probe GSM1” (2021)
Calls of active or inactive are those of the source. The calls are words filed in the database; no cut-off is given here.

Tests used:
[1] = target: Alpha-2A adrenergic receptor (Homo sapiens) (UniProt P08913); details: Compound concentration 10.0 uM
[2] = target: Rhodopsin kinase GRK1 (Homo sapiens) (UniProt Q15835); details: Compound concentration 1000.0 nM
[3] = target: TRAF2 and NCK-interacting protein kinase (Homo sapiens) (UniProt Q9UKE5); details: Compound concentration 1000.0 nM
[4] = target: Casein kinase I isoform gamma-3 (Homo sapiens) (UniProt Q9Y6M4); details: Compound concentration 1000.0 nM
[5] = target: Mitogen-activated protein kinase kinase kinase 13 (Homo sapiens) (UniProt O43283); details: Compound concentration 1000.0 nM
[6] = target: Inhibitor of nuclear factor kappa-B kinase subunit alpha (Homo sapiens) (UniProt O15111); details: Compound concentration 1000.0 nM
[7] = target: Non-receptor tyrosine-protein kinase TNK1 (Homo sapiens) (UniProt Q13470); details: Compound concentration 1000.0 nM
[8] = target: Calcium/calmodulin-dependent protein kinase type II subunit gamma (Homo sapiens) (UniProt Q13555); details: Compound concentration 1000.0 nM
[9] = target: Serine/threonine-protein kinase SIK2 (Homo sapiens) (UniProt Q9H0K1); details: Compound concentration 1000.0 nM
[10] = target: Uncharacterized serine/threonine-protein kinase SBK3 (Homo sapiens) (UniProt P0C264); details: Compound concentration 1000.0 nM
[11] = target: Protein-tyrosine kinase 2-beta (Homo sapiens) (UniProt Q14289); details: Compound concentration 1000.0 nM
[12] = test system: Mast/stem cell growth factor receptor Kit (Homo sapiens), P10721 [D816H]; details: Compound concentration 1000.0 nM
[13] = test system: Receptor-type tyrosine-protein kinase FLT3 (Homo sapiens), P36888 [N841I]; details: Compound concentration 1000.0 nM
[14] = target: Serine/threonine-protein kinase WNK4 (Homo sapiens) (UniProt Q96J92); details: Compound concentration 1000.0 nM
[15] = target: Delta-type opioid receptor (Homo sapiens) (UniProt P41143); details: Compound concentration 10.0 uM
[16] = test system: Mast/stem cell growth factor receptor Kit (Homo sapiens), P10721 [V559D,V654A]; details: Compound concentration 1000.0 nM
[17] = target: Dual specificity tyrosine-phosphorylation-regulated kinase 1A (Homo sapiens) (UniProt Q13627); details: Compound concentration 1000.0 nM
[18] = target: Sodium-dependent serotonin transporter (Homo sapiens, UniProt P31645); test: GPCRScan assay: inhibition of SERT; parameters: radioligand conc. used [nm] 1.5 – 2.0, parental cells stable HEK
[19] = target: Wee1-like protein kinase (Homo sapiens) (UniProt P30291); details: Compound concentration 1000.0 nM
[20] = target: Activin receptor type-1 (Homo sapiens) (UniProt Q04771); details: Compound concentration 1000.0 nM
[21] = target: Cyclin-dependent kinase 4 (Homo sapiens) (UniProt P11802); details: Compound concentration 1000.0 nM
[22] = target: Microtubule-associated serine/threonine-protein kinase 1 (Homo sapiens) (UniProt Q9Y2H9); details: Compound concentration 1000.0 nM
[23] = target: Inhibitor of nuclear factor kappa-B kinase subunit epsilon (Homo sapiens) (UniProt Q14164); details: Compound concentration 1000.0 nM
[24] = target: 5-hydroxytryptamine receptor 2A (Homo sapiens) (UniProt P28223); details: Compound concentration 10.0 uM
[25] = target: cAMP-dependent protein kinase catalytic subunit beta (Homo sapiens) (UniProt P22694); details: Compound concentration 1000.0 nM
[26] = target: Ephrin type-B receptor 6 (Homo sapiens) (UniProt O15197); details: Compound concentration 1000.0 nM
[27] = target: MAP kinase-activated protein kinase 2 (Homo sapiens) (UniProt P49137); details: Compound concentration 1000.0 nM
[28] = target: NT-3 growth factor receptor (Homo sapiens) (UniProt Q16288); details: Compound concentration 1000.0 nM
[29] = target: Ribosomal protein S6 kinase alpha-3 (Homo sapiens) (UniProt P51812); details: Compound concentration 1000.0 nM
[30] = target: Serine/threonine-protein kinase RIO1 (Homo sapiens) (UniProt Q9BRS2); details: Compound concentration 1000.0 nM
[31] = target: Dual specificity protein kinase CLK4 (Homo sapiens) (UniProt Q9HAZ1); details: Compound concentration 1000.0 nM
[32] = target: Interferon-induced, double-stranded RNA-activated protein kinase (Homo sapiens) (UniProt P19525); details: Compound concentration 1000.0 nM
[33] = target: Serine/threonine-protein kinase pim-2 (Homo sapiens) (UniProt Q9P1W9); details: Compound concentration 1000.0 nM
[34] = test system: Tyrosine-protein kinase ABL1 (Homo sapiens), P00519 [F317L]; details: Compound concentration 1000.0 nM
[35] = target: Cyclin-dependent kinase 5 (Homo sapiens) (UniProt Q00535); details: Compound concentration 1000.0 nM
[36] = target: Serine/threonine-protein kinase 26 (Homo sapiens) (UniProt Q9P289); details: Compound concentration 1000.0 nM
[37] = target: T1, Amyloid-beta precursor protein (Homo sapiens, UniProt P05067); test: Aβ42 inhibition assay
[38] = target: Casein kinase I isoform gamma-1 (Homo sapiens) (UniProt Q9HCP0); details: Compound concentration 1000.0 nM
[39] = target: Serine/threonine-protein kinase Nek4 (Homo sapiens) (UniProt P51957); details: Compound concentration 1000.0 nM
[40] = test system: Epidermal growth factor receptor (Homo sapiens), P00533 [UNDEFINED MUTATION]; details: Compound concentration 1000.0 nM
[41] = target: Receptor tyrosine-protein kinase erbB-4 (Homo sapiens) (UniProt Q15303); details: Compound concentration 1000.0 nM
[42] = target: Mitogen-activated protein kinase kinase kinase 9 (Homo sapiens) (UniProt P80192); details: Compound concentration 1000.0 nM
[43] = target: Tyrosine-protein kinase Mer (Homo sapiens) (UniProt Q12866); details: Compound concentration 1000.0 nM
[44] = target: Wee1-like protein kinase 2 (Homo sapiens) (UniProt P0C1S8); details: Compound concentration 1000.0 nM
[45] = target: Phosphatidylinositol 3-kinase catalytic subunit type 3 (Homo sapiens) (UniProt Q8NEB9); details: Compound concentration 1000.0 nM
[46] = target: T1, Amyloid-beta precursor protein; test: Aβ40 inhibition assay

T1 sequence (P05067 whole entry, canonical isoform): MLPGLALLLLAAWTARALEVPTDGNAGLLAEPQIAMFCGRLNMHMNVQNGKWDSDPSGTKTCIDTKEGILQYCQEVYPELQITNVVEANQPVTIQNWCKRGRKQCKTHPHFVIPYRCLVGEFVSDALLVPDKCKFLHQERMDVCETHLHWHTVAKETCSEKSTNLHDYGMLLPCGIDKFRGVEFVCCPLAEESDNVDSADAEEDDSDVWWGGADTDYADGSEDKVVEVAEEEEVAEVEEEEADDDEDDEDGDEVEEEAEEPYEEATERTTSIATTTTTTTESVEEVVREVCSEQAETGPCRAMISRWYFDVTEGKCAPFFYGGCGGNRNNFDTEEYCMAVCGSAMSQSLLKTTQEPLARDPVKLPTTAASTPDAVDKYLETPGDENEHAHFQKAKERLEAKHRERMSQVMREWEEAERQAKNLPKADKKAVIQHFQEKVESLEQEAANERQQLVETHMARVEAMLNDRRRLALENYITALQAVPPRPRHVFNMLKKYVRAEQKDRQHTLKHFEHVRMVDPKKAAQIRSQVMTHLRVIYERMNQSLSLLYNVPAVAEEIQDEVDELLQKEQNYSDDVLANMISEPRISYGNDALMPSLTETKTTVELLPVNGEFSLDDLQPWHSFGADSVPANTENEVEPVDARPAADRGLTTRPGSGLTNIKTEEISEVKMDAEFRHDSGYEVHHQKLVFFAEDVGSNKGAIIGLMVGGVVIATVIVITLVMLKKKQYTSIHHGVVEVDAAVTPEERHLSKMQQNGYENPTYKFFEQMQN
Chain of Sodium-dependent serotonin transporter (P31645 whole entry): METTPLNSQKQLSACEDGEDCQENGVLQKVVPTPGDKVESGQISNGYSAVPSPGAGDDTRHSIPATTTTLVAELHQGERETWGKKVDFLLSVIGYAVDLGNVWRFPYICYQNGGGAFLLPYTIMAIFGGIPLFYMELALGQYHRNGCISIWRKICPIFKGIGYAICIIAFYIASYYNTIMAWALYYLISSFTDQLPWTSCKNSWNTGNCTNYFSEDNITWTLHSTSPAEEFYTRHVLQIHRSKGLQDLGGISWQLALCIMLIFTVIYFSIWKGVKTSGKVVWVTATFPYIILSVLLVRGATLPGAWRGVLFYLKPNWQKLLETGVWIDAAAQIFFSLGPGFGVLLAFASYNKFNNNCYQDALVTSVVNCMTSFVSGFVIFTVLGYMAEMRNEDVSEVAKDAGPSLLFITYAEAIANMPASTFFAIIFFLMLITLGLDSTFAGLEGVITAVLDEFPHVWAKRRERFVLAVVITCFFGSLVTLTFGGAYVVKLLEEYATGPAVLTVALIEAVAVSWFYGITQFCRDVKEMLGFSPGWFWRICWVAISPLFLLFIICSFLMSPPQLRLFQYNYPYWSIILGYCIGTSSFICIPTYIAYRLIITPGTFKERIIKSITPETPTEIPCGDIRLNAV
Chain of Mitogen-activated protein kinase kinase kinase 9 (Homo sapiens) (P80192 whole entry, looked up): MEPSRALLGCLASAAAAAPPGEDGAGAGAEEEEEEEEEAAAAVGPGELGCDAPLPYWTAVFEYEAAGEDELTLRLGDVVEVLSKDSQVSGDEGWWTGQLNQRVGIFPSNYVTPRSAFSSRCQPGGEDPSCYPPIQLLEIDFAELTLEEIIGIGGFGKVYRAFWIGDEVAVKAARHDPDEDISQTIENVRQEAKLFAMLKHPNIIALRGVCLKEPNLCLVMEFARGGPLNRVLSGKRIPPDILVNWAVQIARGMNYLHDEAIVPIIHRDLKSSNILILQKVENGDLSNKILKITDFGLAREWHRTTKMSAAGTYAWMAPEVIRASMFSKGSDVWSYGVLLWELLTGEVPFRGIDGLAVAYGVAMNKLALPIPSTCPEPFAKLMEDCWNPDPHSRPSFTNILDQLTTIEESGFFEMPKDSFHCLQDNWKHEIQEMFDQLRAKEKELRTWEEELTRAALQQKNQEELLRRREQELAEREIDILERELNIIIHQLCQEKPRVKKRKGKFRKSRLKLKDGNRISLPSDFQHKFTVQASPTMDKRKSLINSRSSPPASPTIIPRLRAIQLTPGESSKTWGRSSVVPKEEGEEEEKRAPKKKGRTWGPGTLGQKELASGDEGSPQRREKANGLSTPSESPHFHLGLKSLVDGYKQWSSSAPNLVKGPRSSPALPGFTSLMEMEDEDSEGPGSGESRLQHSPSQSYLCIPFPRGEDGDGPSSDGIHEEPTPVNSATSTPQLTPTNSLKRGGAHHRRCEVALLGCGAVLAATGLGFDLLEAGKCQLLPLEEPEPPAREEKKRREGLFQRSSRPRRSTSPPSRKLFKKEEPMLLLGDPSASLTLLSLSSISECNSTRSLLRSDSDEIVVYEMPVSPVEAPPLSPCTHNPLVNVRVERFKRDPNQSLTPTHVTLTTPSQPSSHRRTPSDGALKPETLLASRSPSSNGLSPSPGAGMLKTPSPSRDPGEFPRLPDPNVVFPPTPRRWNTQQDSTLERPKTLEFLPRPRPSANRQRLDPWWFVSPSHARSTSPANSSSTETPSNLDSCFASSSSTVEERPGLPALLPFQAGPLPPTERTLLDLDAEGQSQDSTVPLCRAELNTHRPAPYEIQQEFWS
Chain of Mitogen-activated protein kinase kinase kinase 13 (Homo sapiens) (O43283 whole entry): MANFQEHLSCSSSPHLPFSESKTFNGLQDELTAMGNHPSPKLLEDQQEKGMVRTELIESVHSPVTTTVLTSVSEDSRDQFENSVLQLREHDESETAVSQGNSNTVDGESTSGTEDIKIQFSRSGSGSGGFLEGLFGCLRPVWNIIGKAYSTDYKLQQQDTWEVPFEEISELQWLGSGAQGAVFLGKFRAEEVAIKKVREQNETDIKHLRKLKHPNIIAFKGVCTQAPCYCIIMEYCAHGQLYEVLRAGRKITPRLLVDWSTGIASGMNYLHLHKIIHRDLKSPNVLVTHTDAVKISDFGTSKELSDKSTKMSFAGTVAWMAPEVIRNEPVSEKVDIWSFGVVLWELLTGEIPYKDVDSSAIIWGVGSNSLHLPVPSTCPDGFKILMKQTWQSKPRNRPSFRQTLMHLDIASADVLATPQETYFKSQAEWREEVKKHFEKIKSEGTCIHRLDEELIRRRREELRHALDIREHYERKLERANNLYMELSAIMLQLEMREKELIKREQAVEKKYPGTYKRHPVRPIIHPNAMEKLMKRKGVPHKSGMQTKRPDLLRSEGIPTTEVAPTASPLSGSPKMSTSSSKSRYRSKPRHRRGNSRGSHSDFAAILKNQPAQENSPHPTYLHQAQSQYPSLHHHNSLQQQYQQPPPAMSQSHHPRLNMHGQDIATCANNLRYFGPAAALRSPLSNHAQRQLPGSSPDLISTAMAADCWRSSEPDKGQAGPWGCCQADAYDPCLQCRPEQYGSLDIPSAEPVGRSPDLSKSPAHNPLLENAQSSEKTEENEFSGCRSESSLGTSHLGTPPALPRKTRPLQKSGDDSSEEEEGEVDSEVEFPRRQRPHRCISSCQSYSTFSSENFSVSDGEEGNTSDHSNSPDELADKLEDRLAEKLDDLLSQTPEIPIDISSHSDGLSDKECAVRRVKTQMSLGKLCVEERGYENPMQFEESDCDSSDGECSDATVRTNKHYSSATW
Chain of Wee1-like protein kinase (Homo sapiens) (P30291 whole entry, looked up): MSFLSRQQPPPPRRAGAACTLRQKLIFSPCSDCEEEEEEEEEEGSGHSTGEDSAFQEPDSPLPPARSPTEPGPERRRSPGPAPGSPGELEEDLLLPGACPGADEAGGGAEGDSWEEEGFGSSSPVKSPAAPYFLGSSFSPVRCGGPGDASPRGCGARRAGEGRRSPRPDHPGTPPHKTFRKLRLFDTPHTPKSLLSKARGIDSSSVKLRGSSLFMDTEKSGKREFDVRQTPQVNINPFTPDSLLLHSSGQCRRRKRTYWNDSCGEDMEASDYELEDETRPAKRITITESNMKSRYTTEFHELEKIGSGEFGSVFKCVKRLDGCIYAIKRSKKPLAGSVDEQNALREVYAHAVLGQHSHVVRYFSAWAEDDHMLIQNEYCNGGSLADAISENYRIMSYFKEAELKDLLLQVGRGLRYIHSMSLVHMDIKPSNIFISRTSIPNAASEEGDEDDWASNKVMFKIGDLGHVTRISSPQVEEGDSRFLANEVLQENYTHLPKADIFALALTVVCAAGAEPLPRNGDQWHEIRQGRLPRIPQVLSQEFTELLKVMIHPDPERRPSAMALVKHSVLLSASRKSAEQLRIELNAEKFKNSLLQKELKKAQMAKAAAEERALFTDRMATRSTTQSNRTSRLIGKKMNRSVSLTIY
Chain of Delta-type opioid receptor (Homo sapiens) (P41143 whole entry): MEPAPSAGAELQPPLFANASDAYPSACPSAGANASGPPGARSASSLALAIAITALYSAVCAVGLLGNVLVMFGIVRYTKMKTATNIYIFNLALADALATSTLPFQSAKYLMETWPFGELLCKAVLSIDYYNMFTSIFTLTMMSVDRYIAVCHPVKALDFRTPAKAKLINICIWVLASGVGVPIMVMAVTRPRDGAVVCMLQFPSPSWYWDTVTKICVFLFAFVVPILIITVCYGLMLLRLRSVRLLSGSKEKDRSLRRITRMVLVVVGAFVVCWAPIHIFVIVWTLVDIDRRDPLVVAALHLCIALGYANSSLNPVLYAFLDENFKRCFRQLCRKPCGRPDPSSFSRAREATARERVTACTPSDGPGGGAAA
Chain of Interferon-induced, double-stranded RNA-activated protein kinase (Homo sapiens) (P19525 whole entry): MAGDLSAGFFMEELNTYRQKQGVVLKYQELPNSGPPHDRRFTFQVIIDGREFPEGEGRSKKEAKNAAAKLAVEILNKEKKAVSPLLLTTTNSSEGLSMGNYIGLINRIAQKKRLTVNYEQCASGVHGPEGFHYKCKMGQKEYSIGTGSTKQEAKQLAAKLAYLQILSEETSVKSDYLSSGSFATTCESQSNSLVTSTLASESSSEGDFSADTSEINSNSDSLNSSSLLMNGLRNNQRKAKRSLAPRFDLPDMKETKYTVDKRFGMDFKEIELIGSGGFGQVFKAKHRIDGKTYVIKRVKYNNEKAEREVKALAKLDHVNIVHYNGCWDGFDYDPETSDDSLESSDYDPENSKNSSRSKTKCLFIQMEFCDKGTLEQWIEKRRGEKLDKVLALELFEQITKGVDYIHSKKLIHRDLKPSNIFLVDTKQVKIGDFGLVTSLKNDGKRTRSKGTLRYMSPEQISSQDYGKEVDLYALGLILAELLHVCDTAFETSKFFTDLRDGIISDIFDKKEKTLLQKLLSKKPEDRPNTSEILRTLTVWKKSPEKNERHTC

`COc1cc(-c2cn([C@H]3CCc4c(F)cccc4N(CC(F)(F)F)C3=O)nn2)ccc1-n1cnc(C)c1` showed an inhibition [1] of 35%, a residual activity [2] of 99% and a residual activity [3] of 94%. For the same compound, the residual activity [4] was 86%, the residual activity [5] was 75% and the residual activity [6] was 100%. It also gave a residual activity [7] of 100%, a residual activity [8] of 100% and a residual activity [9] of 100%. For the same compound, the residual activity [10] was 100%, the residual activity [11] was 100% and the residual activity [12] was 67%. The residual activity [13] was 99%, the residual activity [14] was 100% and the inhibition [15] was 18.2%. It also gave a residual activity [16] of 97%, a residual activity [17] of 84% and a Ki ([18]; read-out: Ki) of 24 nM. For the same compound, the residual activity [19] was 79%, the residual activity [20] was 100% and the residual activity [21] was 100%. The residual activity [22] was 100%, the residual activity [23] was 100% and the inhibition [24] was 11.5%. The residual activity [25] was 95%, the residual activity [26] was 100% and the residual activity [27] was 100%. For the same compound, the residual activity [28] was 95%, the residual activity [29] was 100% and the residual activity [30] was 96%. For the same compound, the residual activity [31] was 100%, the residual activity [32] was 100% and the residual activity [33] was 100%. The residual activity [34] was 85%, the residual activity [35] was 100% and the residual activity [36] was 90%. The IC50 [37] was 31 nM (active), the residual activity [38] was 86% and the residual activity [39] was 100%. It also gave a residual activity [40] of 0%, a residual activity [41] of 100% and a residual activity [42] of 100%. It also gave a residual activity [43] of 100%, a residual activity [44] of 100% and a residual activity [45] of 100%. The IC50 [46] was 131 nM (active).
For `COc1cc(-c2cn([C@H]3CCc4ccccc4N(CC(F)(F)F)C3=O)nn2)ccc1-n1ccc(C)n1`, the inhibition [1] was 22.2%, the residual activity [2] was 80% and the residual activity [3] was 81%. For the same compound, the residual activity [4] was 86%, the residual activity [5] was 84% and the residual activity [6] was 98%. For the same compound, the residual activity [7] was 100%, the residual activity [8] was 100% and the residual activity [9] was 100%. It also gave a residual activity [10] of 92%, a residual activity [11] of 100% and a residual activity [12] of 75%. For the same compound, the residual activity [13] was 100%, the residual activity [14] was 100% and the inhibition [15] was 16.7%. The residual activity [16] was 100%, the residual activity [17] was 83% and the Ki ([18]; read-out: Ki) was 391 nM. It also gave a Ki ([18]; read-out: pKi (converted)) of 380 nM, a residual activity [19] of 100% and a residual activity [20] of 100%. It also gave a residual activity [21] of 90%, a residual activity [22] of 100% and a residual activity [23] of 68%. It also gave an inhibition [24] of 5.83%, a residual activity [25] of 81% and a residual activity [26] of 100%. The residual activity [27] was 90%, the residual activity [28] was 98% and the residual activity [29] was 100%. For the same compound, the residual activity [30] was 100%, the residual activity [31] was 80% and the residual activity [32] was 87%. The residual activity [33] was 100%, the residual activity [34] was 64% and the residual activity [35] was 100%. The residual activity [36] was 83%, the IC50 [37] was > 10000 nM (not active) and the residual activity [38] was 77%. The residual activity [39] was 100%, the residual activity [40] was 100% and the residual activity [41] was 100%. It also gave a residual activity [42] of 91%, a residual activity [43] of 100% and a residual activity [44] of 100%. The residual activity [45] was 100% and the IC50 [46] was > 10000 nM (not active).
